Results as given in PubChem BioAssay (NCI).
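These data come from cells grown in 96-well plates and exposed to compound for 48 hours at five concentrations. GI50 = concentration required for 50% inhibition of growth. Definition used: TGI = concentration required for complete inhibition of growth.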

Key:
Test in all cases: DTP human tumour cell line panel, 48 h
SK-OV-3 ovarian = test system: SK-OV-3 ovarian
LXFL 529 NSCLC = test system: LXFL 529 NSCLC
M14 melanoma = test system: M14 melanoma
UACC-257 melanoma = test system: UACC-257 melanoma
NCI-H226 lung = test system: NCI-H226 lung
786-0 renal = test system: 786-0 renal
XF 498 CNS = test system: XF 498 CNS
SF-539 CNS = test system: SF-539 CNS
MDA-MB-231 breast = test system: MDA-MB-231 breast

Row | Structure (SMILES) | TGI (SK-OV-3 ovarian) [µM] | TGI (LXFL 529 NSCLC) [µM] | TGI (M14 melanoma) [µM] | TGI (UACC-257 melanoma) [µM] | TGI (NCI-H226 lung) [µM] | TGI (786-0 renal) [µM] | TGI (XF 498 CNS) [µM] | TGI (SF-539 CNS) [µM] | TGI (MDA-MB-231 breast) [µM] | GI50 (SK-OV-3 ovarian) [µM] | GI50 (LXFL 529 NSCLC) [µM] | GI50 (M14 melanoma) [µM] | GI50 (UACC-257 melanoma) [µM] | GI50 (786-0 renal) [µM] | GI50 (XF 498 CNS) [µM] | GI50 (SF-539 CNS) [µM]
1 | COC1(OC)CC2OC1C1N=NN(C(=O)OC(C)(C)C)C21 (configuration not stated) | > 100 | > 100 | > 100 | > 100 | > 100 | > 100 | > 100 | > 100 |  |  |  |  |  |  |  | 
2 | O=C(CC1(O)C(=O)Nc2c(Cl)ccc(Cl)c21)c1ccc(F)cc1 (configuration not stated) | > 100 | 92.1 | > 100 | > 100 | 79.6 | > 100 | 77.1 |  |  |  |  |  |  |  |  | 
3 | O=C(CCN(C(=O)O)S(=O)(=O)c1ccc(NC(=O)c2ccccc2)cc1)NC1CCCCC1 | > 100 | > 100 | > 100 | > 100 | > 100 | 31.7 | > 100 | > 100 |  |  |  |  |  |  |  | 
4 | O=C(N/C(=C\c1cccc([N+](=O)[O-])c1)c1nc2ccc([N+](=O)[O-])cc2[nH]1)c1ccccc1 | > 100 | 75.1 | > 100 |  |  | > 100 | 59.8 | > 100 |  |  |  |  |  |  |  | 
5 | COc1ccc(N2C(=O)/C(=C/c3ccc(N(CCC#N)CCC#N)cc3C)N=C2c2cc([N+](=O)[O-])ccc2Cl)cc1 | > 63.1 | > 100 | 24.4 | > 56.2 | 42.8 | 43.7 | 8.12 | 7.22 | 49.4 |  |  |  |  |  |  | 
6 | CC1CN1C(=O)NCCCCCCNC(=O)N1CC1C (configuration not stated) | > 100 | > 100 | > 100 | > 100 | > 100 | > 100 | > 100 | 98.2 | > 100 |  |  |  |  |  |  | 
7 | NC(=O)COC(=O)c1c(Cl)nc2sccn12 | > 100 | > 100 | > 100 | > 100 | > 100 | 36 | > 100 | > 100 |  |  |  |  |  |  |  | 
8 | CCCC1N2CCCCC2[C@@H]2c3[nH]c4ccccc4c3CCN12 (some centres not stated) | > 100 | > 100 | > 100 | > 100 |  | > 100 | > 100 | > 100 |  |  |  |  |  |  |  | 
9 | Nc1cccc(S(=O)(=O)NCC(=O)O)c1 | > 100 | > 100 | > 100 | > 100 | > 100 | > 100 | > 100 | > 100 |  |  |  |  |  |  |  | 
10 | NC1=NC(c2ccccc2)CC(c2cc(Cl)ccc2O)=N1 (configuration not stated) | 33 | 28.3 | 30.5 | 35.7 | 37.8 | 32.5 | 33.7 | 28.5 |  |  |  |  |  |  |  | 
11 | C[C@@H]1OC(=O)N2CCCC(=C3SCCCS3)C12 (some centres not stated) | > 100 | > 100 | > 100 | > 100 | > 100 | > 100 | > 100 | > 100 |  |  |  |  |  |  |  | 
12 | O=C(O)C(CS)Nc1c2ccccc2nc2ccccc12 (configuration not stated) | > 100 | > 100 | > 100 | > 100 | > 100 | > 100 | > 100 | > 100 |  |  |  |  |  |  |  | 
13 | COc1ccc2c(c1)[n+](=O)c(C(=O)C/C(=N/OCCCc1ccccc1)C(=O)NC13CC4CC(CC(C4)C1)C3)c(C)n2[O-] | > 100 | > 100 | > 100 | > 100 | > 100 | > 100 | > 100 | > 100 |  |  |  |  |  |  |  | 
14 | NC12CC3CC(C1)CC(C(=O)O)(C3)C2 | > 100 | > 100 | > 100 | > 100 |  | > 100 | > 100 | > 100 |  |  |  |  |  |  |  | 
15 | COc1cc(Nc2nc3ccccc3nc2-c2cccs2)cc(OC)c1OC | > 100 | > 100 |  | > 100 | > 100 | > 100 | 76.6 | > 100 |  |  |  |  |  |  |  | 
16 | CCc1ccccc1NC(=O)C1=C(C)NC(C)=C(C(=O)Nc2ccccc2CC)C1c1ccc2c(c1)OCO2 | > 100 | 98.4 | > 100 | > 100 | 81.4 | > 100 | 70.4 | 45.8 |  |  |  |  |  |  |  | 
17 | Cc1ccc(NC(=O)CC(=O)n2nc(C)c(N=Nc3ccccc3C(=O)O)c2C)cc1 | > 100 | > 100 | > 100 | > 100 |  | > 100 | > 100 | > 100 |  |  |  |  |  |  |  | 
18 | CCC[CH2][Sn]1([CH2]CCC)[O]C(=O)CN=Cc2c(ccc3ccccc23)[O]1 | 2.31 | 0.249 | 1.34 | 0.285 |  | 1.81 | > 100 | > 100 |  | 1.11 | 0.107 | 0.367 | 0.0434 | 0.487 | > 100 | 1.51
19 | CC(SC(=S)N1CCOCC1)c1cc2oc(=O)n(C)c2cc1Cl (configuration not stated) | > 100 | > 100 | > 100 | > 100 |  | > 100 | > 100 | > 100 |  |  |  |  |  |  |  | 
20 | O=C(CCc1cc(-c2ccccc2)nc(=S)[nH]1)N(Cc1ccccc1)Cc1ccccc1 | > 100 | > 100 | > 100 | > 100 | > 100 | > 100 | > 100 | > 100 |  |  |  |  |  |  |  | 
21 | CCOCC(=O)N[C@H]1CCc2cc(OC)c(OC)c(OC)c2-c2ccc(OC)c(=O)cc21 | 15 | > 100 | 20.2 | > 100 | 2.52 | > 100 | > 60 | 0.0328 | > 100 |  |  |  |  |  |  | 
22 | Nc1c(-c2ccc(Cl)cc2)[n+]([O-])c2ccccc2[n+]1[O-] | > 100 | > 100 | > 100 | > 100 | > 100 | > 100 | > 100 | > 100 |  |  |  |  |  |  |  | 
23 | O/N=C/c1ncccc1C1OCCO1 | > 100 | > 100 | > 100 | > 100 | > 100 | > 100 | > 100 | > 100 |  |  |  |  |  |  |  | 
24 | Cc1c(C(=O)C/C(=N/NC(=O)C[N+](C)(C)C)C(=O)Nc2ccc(Cl)cc2)[n+](=O)c2ccccc2n1O |  | > 100 | > 100 | > 100 | > 100 | > 100 | > 100 | > 100 |  |  |  |  |  |  |  | 
